Experimental data published in patent US10758560B2, “Methods for treating sarcopenia and frailty” (NESTEC S.A., priority 2015, dated 2020).

B1: neuregulin-1: NRG1 beta EGF domain from Reprokine (catalog number RKQ02297); SEQ ID NO: 7 (protein, listed as Homo sapiens)
chain: SHLVKCAEKEKTFCVNGGECFMVKDLSNPSRYLCKCPNEFTGDRCQNYVMASFYKHLGIEF

How the values were obtained:
[1] = system: neuromuscular junctions (nerve and muscle co-cultures); test: Nerve and muscle co-cultures, beta-amyloid (2.5 μM) induced damage of neuromuscular junctions; format: cell-based; settings: for protection from Ab-induced damage (neuromuscular junction size, number and neurite network): 1 or 100 nM, FIG. 4
Method: Nerve and muscle co-cultures were grown in vitro until neuromuscular junctions were mature. Damage was induced using beta-amyloid (Ab) incubation (2.5 μM) and riluzole (5 μM) was used as a positive control for preserving neuromuscular junctions from Ab-induced damage.
The effect of neuregulin-1 (NRG1; various concentrations, as specified in FIG. 2) on Ab-induced damage was evaluated by measuring the neuromuscular junction (NMJ) size. 6 wells per group were analysed and compared to a control condition. The uninjured control condition is the neuromuscular junction size without Ab treatment. All other conditions are to be compared to the Ab treatment alone which represents the reference value for damaged neuromuscular junction size.
Nerve and muscle co-cultures were grown in vitro until neuromuscular junctions were mature. Damage was induced using beta-amyloid (Ab) incubation (2.5 μM) and riluzole (5 μM) was used as a positive control for preserving neuromuscular junctions from Ab-induced damage. The effect of methylcobalamin (MeCbl; 1 or 100 nM) and adenosylcobalamin (AdenoCbl; 1 or 100 nM) on Ab-induced damage was evaluated by measuring the neuromuscular junction (NMJ) number and size, and the neurite network. 6 wells per group were analysed and compared to a control condition (CTL). The uninjured control condition is the neuromuscular junction size without Ab treatment. All other conditions are to be compared to the Ab treatment alone which represents the reference value for damaged neuromuscular junction size.

HSMM human myoblasts = test: TNFa-induced myotube atrophy in HSMM human myoblasts (fusion index); format: cell-based; settings: TNFa 40 ng/ml for 4 days; 1 nM; FIG. 7
Method: HSMM human myoblasts were grown in vitro and induced to differentiate into mature myotubes. Myotube atrophy was induced by incubation with TNFa at 40 ng/ml for 4 days. MeCbl (1 nM) and AdoCbl (1 nM) were incubated together with TNFa to test their effect on induced atrophy. IGF1 is used as a positive control at 15 nM to prevent muscle atrophy. After 4 days of treatment, cells were stained for nuclei and myosin heavy chain to quantify the proportion of nuclei inside myotubes (i.e fusion index).

[2] = system: Tibialis anterior muscle fibers; test: Effect of vitamin B12 on skeletal muscle in vivo: tibialis anterior fiber size in aged rats; parameters: species or system rat; settings: 1 mg/kg s.c. 3 times per week for 5 months, type 2A fibers, FIG. 6
Method: Pre-sarcopenic rats aged 16 months were treated for 5 months with either adenosylcobalamin (AdoCbl, C0884, Sigma aldrich), methylcobalamin (MeCbl, M9756, Sigma aldrich) or saline. AdoCbl and MeCbl were injected sub-cutaneously at 1 mg/kg body weight 3 time per week. Tibialis Anterior (TA) was then dissected out and frozen for further analyses. For histology, TA was cryo-sectioned at 10 μm and stained with laminin (L9393, Sigma aldrich) to delineate fibers. Specific fiber types 1, 2A and 2B were immunolabeled subsequently with appropriate antibodies (clones BADS, BFF3, and SC71 respectively, DSHB). Images were acquired using a slide scanner (VS-120, Olympus) and analyzed using an in-house MetaXpress journal (Molecular Devices, Sunnyvale, USA). Images from old animals were compared to a group of adult healthy rats (8 months at start of experiment) injected with saline control. For gene expression analysis, total RNA was extracted using the miRNeasy Mini Kit (Qiagen) according to the manufacturer's instruction and RNA quality was checked using the Standard Sensitivity RNA Analysis Kit on a Fragment Analyzer (Advanced Analytical Technologies). Samples were then hybridized on Affymetrix Rat 230 PM 96-Array following standard Affymetrix protocol, based on the Eberwine T7 procedure. […]

[3] = system: neuromuscular junctions (nerve and muscle co-cultures); test: Nerve and muscle co-cultures, stronger beta-amyloid (10 μM) induced damage of neuromuscular junctions; format: cell-based; settings: longer incubation, NRG1 30 nM and/or AdoCbl 1 nM, FIG. 5
Method: Nerve and muscle co-cultures were grown in vitro until neuromuscular junctions were mature. Damage was induced using beta-amyloid (Ab) incubation (10 μM) and riluzole (5 μM) was used as a positive control for preserving neuromuscular junctions from Ab-induced damage. The effect of neuregulin-1 (NRG1; 30 nM) and/or adenosylcobalamin (AdoCbl; 1 nM) on Ab-induced damage was evaluated by measuring the neuromuscular junction (NMJ) size or number. 6 wells per group were analysed and compared to a control condition (CTL) without Ab-induced damage.

[4] = system: hind-limb skeletal muscle; test: Age-induced atrophy of skeletal muscle in pre-sarcopenic rats (hind-limb skeletal muscle mass); format: in vivo, rat; settings: pre-sarcopenic rats aged 16 months, 1 μg/kg s.c. 3 times per week for 5 months, versus saline controls; FIG. 3
Method: Pre-sarcopenic rats aged 16 months were treated for 5 months with either neuregulin-1 (NRG1; NRG1 beta EGF domain from Reprokine (catalog number RKQ02297)) or saline. NRG1 was injected sub-cutaneously at 1 μg/kg body weight 3 time per week. Hind-limb skeletal muscle mass was then evaluated and compared to a group of adult healthy rats (8 months at start of experiment) injected with saline control. […]

| Molecule | protection from Ab-induced damage (neuromuscular junction size, number and neurite network) [1] | protection from muscle atrophy (fusion index) (HSMM human myoblasts) | increase in muscle fiber size [2] | rescue of neuromuscular junctions (number and size) from stronger Ab-induced damage [3] | protection of the neuromuscular system from Ab-induced damage (neuromuscular junction size) ([1]; NRG1 at a dose of 30 nM, FIG. 2) | hind-limb skeletal muscle mass [4] |
| --- | --- | --- | --- | --- | --- | --- |
| C/C1=C2/[N-][C@H]([C@H](CC(N)=O)[C@@]2(C)CCC(=O)NC[C@H](C)OP(=O)([O-])O[C@H]2[C@@H](O)[C@@H](n3cnc4cc(C)c(C)cc43)O[C@@H]2CO)[C@]2(C)N=C(/C(C)=C3N=C(/C=C4N=C1[C@@H](CCC(N)=O)C\4(C)C)[C@@H](CCC(N)=O)[C@]\3(C)CC(N)=O)[C@@H](CCC(N)=O)[C@]2(C)CC(N)=O.[CH3-].[Co+3] [methylcobalamin, Methylcobalamin] | not methylcobalamin, was also able to protect the system | able to protect from muscle atrophy | not methylcobalamin, was also able to induce an increase in muscle fiber size |  |  |  |
| C/C1=C2/[N-][C@H]([C@H](CC(N)=O)[C@@]2(C)CCC(=O)NC[C@@H](C)OP(=O)([O-])O[C@H]2[C@@H](O)[C@@H](n3cnc4cc(C)c(C)cc43)O[C@@H]2CO)[C@]2(C)N=C(/C(C)=C3N=C(/C=C4N=C1[C@@H](CCC(N)=O)C\4(C)C)[C@@H](CCC(N)=O)[C@]\3(C)CC(N)=O)[C@@H](CCC(N)=O)[C@]2(C)CC(N)=O.[CH2-][C@H]1O[C@@H](n2cnc3c(N)ncnc32)[C@H](O)[C@@H]1O.[Co] [adenosylcobalamin, Adenosylcobalamin] | able to protect the system at both doses tested |  | able to induce an increase in muscle fiber size | neither neuregulin-1 nor adenosylcobalamin alone could rescue the system |  |  |
| B1 |  |  |  | neither neuregulin-1 nor adenosylcobalamin alone could rescue the system | able to protect the neuromuscular system from damage | significantly higher mass compared to controls |
